Article PMC11291776, “The development of ^177Lu-DOTA-CC-PSMA following a unified “Click Chemistry” protocol of synthesizing metal nuclide-conjugated radiopharmaceuticals” (EJNMMI Radiopharmacy and Chemistry, 2024)

Experiment: Pharmacokinetics (blood radioactivity after i.v. injection)
Assay type: in vivo
Details: healthy BALB/c male mice, i.v. 3.7 MBq, blood 2-240 min, DAS 2.0
Method: ^177Lu-DOTA-CC-PSMA (3.7 MBq in 100 µL) or ^177Lu-PSMA-617 (3.7 MBq in 100 µL) was administered intravenously via the tail into BALB/c male mice (n = 6), and a venous blood sample (5 µL) was collected from the tail end of each mouse at different time points after injection (2, 4, 6, 10, 15, 30, 60, 120, and 240 min). The radioactivity of the blood samples was measured by γ-counter, and the pharmacokinetics data were obtained using the DAS 2.0 software.

Work on `O=C([O-])CN1CCN(CC(=O)[O-])CCN(CC(=O)NCC2CCC(C(=O)N[C@@H](Cc3ccc4ccccc4c3)C(=O)NCCCC[C@H](NC(=O)N[C@@H](CCC(=O)O)C(=O)O)C(=O)O)CC2)CCN(CC(=O)[O-])CC1.[177Lu+3]` (stereo partly shown) [^177Lu-PSMA-617] yielded a blood clearance half-life of 17.18 min.
